Experimental data from US10138208B2, “Pyrazole derivatives as inhibitors of STAT3” (Mayo Foundation for Medical Education and Research, priority 2012, dated 2018).
Entries after “also recorded” stand apart in the source; their conditions may differ. Like-named read-outs stand apart in the source and are kept apart here.

Experiments:
[1] = test system: HCT116 cells; assay: Annexin V/propidium iodide apoptosis assay, HCT116; type: cell-based, human; details: HCT (HCT116) cells, dose dependent, 24 hours
Protocol: (§1) The compounds were tested for their effect on tumor cell viability by initiating apoptosis through Annexin V-FITC cell staining analysis. […] Cell death was most pronounced in DAOY cells, followed by BT114 and then HCT cells (FIG. 8). […] The difference in cell death between cell lines may reflect differences in STAT3 signaling between tumor cell types.
(§2) Apoptosis Assay: Analysis of cell death through an apoptosis pathway was determined using an Annexin V apoptosis detection kit (Calbiochem, Rockland, Mass.). dBT114, DAOY and HCT116 cells were plated in 6-well tissue culture plates at a density of 500 cells per well and allowed to reach 60% confluence prior to addition of test compounds for 24 hours. Floating and adherent cells were harvested and stained with FITC-labeled Annexin V and propidium iodide for 15 minutes at room temperature in the dark. The cells were then washed with cold binding buffer and immediately analyzed by flow cytometry for cells staining positive for both Annexin V and propidium iodide.

[2] = test system: DAOY cells; assay: Annexin V/propidium iodide apoptosis assay, DAOY; type: cell-based; details: dose dependent, 24 hours
Protocol: as §1, §2

[3] = test system: glioblastoma (dBT114) cells; assay: IncuCyte cell proliferation assay (confluence), dBT114; type: cell-based, human; details: for dose-dependent inhibition of tumor cell proliferation: dBT114 cells (FIG. 4B); for effect on tumor cell growth kinetics (confluence): 50 μM (FIG. 4A)
Protocol: (§3) Pyrazole-based inhibitors were tested for efficacy in stopping tumor cell growth by performing cell proliferation assays in glioblastoma (dBT114), medulloblastoma (DAOY) and human colorectal carcinoma (HCT116) cells lines. Tumor cells were plated in 96-well plates and varying concentrations of inhibitors or DMSO were added initially or after several log-growths of tumor cells. Cell proliferation was determined by measuring cell confluency using an automated system. […] Similar effects were found on tumor cell proliferation in DAOY and HCT116 tumor cell lines (FIG. 5, again only showing C6 data). The effects of C6 and C3 on tumor cell proliferation were compared to other previously characterized inhibitors, specifically, WP1066 (a Jak2 inhibitor) and LLL-12 (a direct STAT3 inhibitor).
(§4) IncuCyte Cell Proliferation Assay: Cell proliferation assays were performed on dBT114, DAOY and HCT116 cells using an IncuCyte 2011A microplate imager (Essen BioScience, Ann Arbor, Mich.). Cells were plated at a density of 3000 cells per well in a 96 well plate and allowed to reach exponential growth phase prior to the addition of test compounds. Cell confluence was measured optically every three hours for up to 90 hours.

[4] = molecular target: T1, STAT3 (Homo sapiens, UniProt P40763); assay: IL-6 induced STAT3 phosphorylation, Western blot / densitometry, dBT114 cells; type: cell-based; details: for IC50: densitometry of western blots (FIG. 12), read-out: half-maximal inhibitory concentration (IC50) for blocking STAT3 activation; for inhibition of STAT3 phosphorylation: IL-6, 10 μM, Western blot (FIG. 1); for dose dependence of inhibition of IL-6 induced STAT3 phosphorylation: increasing concentrations (FIG. 2)
T1 construct: To characterize changes in protein levels in whole cell lysates; endogenous in cells; host or cells: dBT114 (human GBM stem cell line)
Protocol: (§5) Compounds described herein can be tested for blocking the activation of phospho-STAT3 in vitro. […] The compounds were tested for inhibiting IL-6 induced phosphorylation of STAT3 in a human Glioblastoma GBM stem cell line (dBT114) and in the murine GBM cell line, GL261. IL-6 potently activates STAT3 phosphorylation in dBT114 cells but not as much in GL261 cells (FIG. 1), showing that GL261 cells have constitutively activated STAT3. […] A dose dependent decrease of IL-6 induced STAT3 phosphorylation in dBT114 cells using increasing concentrations of our compounds was observed, while no effect was seen on the levels of activated MAP kinase (FIG. 2).
Western Blot Analysis: Prior to analysis, cells were washed twice in cold phosphate buffered saline (PBS) and flash frozen in 200 μL of lysis buffer (50 mm/L NaCl, 50 mmol/L NaF, 50 mmol/L sodium pyrophosphate, 5 mmol/L EDTA, 5 mmol/L EGTA, 2 mmol/L Na3VO4, 1% Triton X-100, 0.5 mmol/L PMSF, […], 10 mmol/L HEPES, pH 7.4) in a ethanol/dry ice bath followed by scraping and a 5 second sonication to achieve a homogeneous solution. Sample protein concentrations were determined using the Bradford protein assay kit (Bio-Rad, Hercules, Calif.). To characterize changes in protein levels in whole cell lysates, 10 μg of total protein was size fractioned by 12% SDS-PAGE, transferred to nitrocellulose and stained with Ponceau-S stain to ensure equal protein loading. For Western blot analysis, membranes were incubated for 1 hour in blocking solution containing 1% dry milk in PBS-T, followed by an overnight incubation with either anti-Stat3 (Santa Cruz Biotechnology, Santa Cruz, Calif.,) or anti-Phospho-Stat3 (Santa Cruz). Nitrocellulose membranes were then incubated for 1 hour with horseradish peroxidase conjugated anti-IgG antibodies and visualized using Super Signal West Pico enhanced chemiluminescence detection (Thermo Scientific, Waltham, Mass.).
Western Densitometry—Determination of Half-Maximal Inhibitory Concentration for Activating STAT3: Dose Response Curves Half-maximal inhibitory concentrations for activating STAT3 (IC50 values) were calculated in BT114 cells from western blot data. The original western blot films were analyzed by densitometric analysis using the software program NIH Image (available at rsb.info.nih.gov/nih-image/). Standard dose-response curves were then created using the software program Prism 5.

[5] = test system: dBT114 cells; assay: Annexin V/propidium iodide apoptosis assay, dBT114; type: cell-based, human; details: for cell death through apoptosis (Annexin V/PI flow cytometry): dBT114 (BT114) cells, dose dependent, 24 hours
Protocol: as §1, §2

[6] = test system: Normal Human Astrocytes (NHA); assay: MTT cell proliferation assay, normal human astrocytes; details: 24 hour exposure, increasing concentrations, n=4 (FIG. 13)
Protocol: (§8) MTT Cell Proliferation Assay: Normal Human Astrocytes (Lonza) and human BT114 cells were plated at a density of 5000 cells per well in a 96-well tissue culture plate and incubated at 37° C. in the presence of 5% CO2 for 24 hours. Cell proliferation was determined using the CellTiter 96 Cell Proliferation Assay (Promega). After 24 hours cells were refed with normal media and MTT dye solution was added according to manufacturer's protocol. After 4 hours the reaction was stopped and absorbance was measured at 570 nm using a 96 well plate reader. […] (n=4).

[7] = molecular target: T2, STAT3 (Mus musculus, UniProt P42227); assay: STAT3 phosphorylation, Western blot, GL261 cells; type: cell-based, murine; details: GL261 cells (constitutively activated STAT3), 10 μM, Western blot (FIG. 1)
T2 construct: endogenous in cells; host or cells: GL261 (murine GBM cell line)
Protocol: as §5
(§6) Western Blot Analysis: Prior to analysis, cells were washed twice in cold phosphate buffered saline (PBS) and flash frozen in 200 μL of lysis buffer (50 mm/L NaCl, 50 mmol/L NaF, 50 mmol/L sodium pyrophosphate, 5 mmol/L EDTA, 5 mmol/L EGTA, 2 mmol/L Na3VO4, 1% Triton X-100, 0.5 mmol/L PMSF, […], 10 mmol/L HEPES, pH 7.4) in a ethanol/dry ice bath followed by scraping and a 5 second sonication to achieve a homogeneous solution. Sample protein concentrations were determined using the Bradford protein assay kit (Bio-Rad, Hercules, Calif.). […]

[8] = test system: Normal Human Astrocytes (NHA)
Protocol: as §8

[9] = test system: MAP kinase; assay: Activated MAP kinase levels, Western blot, dBT114 cells; type: cell-based, human; details: increasing concentrations (FIG. 2)
Protocol: as §5, §6

[10] = test system: PARP; assay: PARP cleavage in dBT114 cells; type: cell-based, human; details: various concentrations, 24 hours (FIG. 3, FIG. 10B)
[11] = test system: Bcl-2; assay: Downstream target of STAT3 transcription: Bcl-2 protein level in dBT114 cells; type: cell-based, human; details: various concentrations, 24 hours (FIG. 3, FIG. 10B)
Protocol: (§7) STAT3 is a transcription factor that leads to the activation of several pro-proliferation proteins including Cyclin D1 and numerous anti-apoptotic proteins such as Bcl-2. To analyze the effects on the downstream targets of STAT3 transcription, Cyclin D1 and Bcl-2 protein levels were monitored after exposure to the compounds described. dBT114 cells were treated with various concentrations of C3, C10 or DMSO for 24 hours.
as §6, with “Calif.). To characterize changes in protein levels in whole cell lysates, 10 μg of total protein was size fractioned by 12% SDS-PAGE, transferred to nitrocellulose and stained with Ponceau-S stain to ensure equal protein loading.” for “Calif.).”

[12] = test system: DAOY cells; assay: Uptake in living cells by confocal microscopy; type: cell-based; details: live DAOY cells, 50 μM, 30 minutes, confocal microscopy (FIG. 9)
Protocol: Further, live DAOY cells were treated with 50 μM C9 for 30 minutes and then evaluated its uptake with confocal microscopy.

[13] = test system: Cyclin D1; assay: Downstream target of STAT3 transcription: Cyclin D1 protein level in dBT114 cells; type: cell-based, human; details: various concentrations, 24 hours (FIG. 3)
Protocol: as §7
as §6, with “Calif.). To characterize changes in protein levels in whole cell lysates, 10 μg of total protein was size fractioned by 12% SDS-PAGE, transferred to nitrocellulose and stained with Ponceau-S stain to ensure equal protein loading.” for “Calif.).”

[14] = test system: human colorectal carcinoma (HCT116) cells; assay: IncuCyte cell proliferation assay (confluence), HCT116; type: cell-based; details: human colorectal carcinoma cell line HCT116 (FIG. 5B)
Protocol: as §3, §4

[15] = test system: medulloblastoma (DAOY) cells; assay: IncuCyte cell proliferation assay (confluence), DAOY; type: cell-based; details: DAOY cells (FIG. 5A)
Protocol: as §3, §4

T2 sequence (P42227 whole entry): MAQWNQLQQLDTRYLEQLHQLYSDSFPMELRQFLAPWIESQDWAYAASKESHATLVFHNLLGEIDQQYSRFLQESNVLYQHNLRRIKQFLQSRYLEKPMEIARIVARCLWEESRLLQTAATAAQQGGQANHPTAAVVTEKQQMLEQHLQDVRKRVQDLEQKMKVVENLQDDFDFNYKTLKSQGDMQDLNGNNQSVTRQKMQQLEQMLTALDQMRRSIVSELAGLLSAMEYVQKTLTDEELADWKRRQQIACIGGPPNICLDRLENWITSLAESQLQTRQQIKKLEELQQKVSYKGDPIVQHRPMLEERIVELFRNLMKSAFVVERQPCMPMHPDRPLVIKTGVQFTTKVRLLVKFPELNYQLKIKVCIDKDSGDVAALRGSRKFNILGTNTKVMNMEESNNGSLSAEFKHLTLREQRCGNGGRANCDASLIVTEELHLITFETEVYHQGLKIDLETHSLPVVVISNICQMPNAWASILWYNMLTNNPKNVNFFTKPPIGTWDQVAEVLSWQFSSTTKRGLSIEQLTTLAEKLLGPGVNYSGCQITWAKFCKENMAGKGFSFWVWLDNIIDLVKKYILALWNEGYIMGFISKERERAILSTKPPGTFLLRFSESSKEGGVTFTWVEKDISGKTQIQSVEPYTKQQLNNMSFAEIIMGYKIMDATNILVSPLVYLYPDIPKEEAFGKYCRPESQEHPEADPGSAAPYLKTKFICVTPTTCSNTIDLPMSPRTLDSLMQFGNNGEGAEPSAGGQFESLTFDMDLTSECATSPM
T1 sequence (P40763 whole entry): as the sequence (P42227 whole entry) above, with D760E counted along it

uptake and fluorescence in living cells [12]	Structure (SMILES)	cell death through apoptosis (Annexin V/PI flow cytometry) [1]	cell death through apoptosis (Annexin V/PI flow cytometry) [2]	dose-dependent inhibition of tumor cell proliferation [3]	IC50 [4] [nM]	cell death through apoptosis (Annexin V/PI flow cytometry) [5]	metabolic activity of normal human astrocytes [6]	inhibition of STAT3 phosphorylation [7]	effect on tumor cell growth kinetics (confluence) ([3]; dBT114 cells)	inhibition of STAT3 phosphorylation [4]	dose dependence of inhibition of IL-6 induced STAT3 phosphorylation [4]	metabolic activity of normal human astrocytes [8]	effect on levels of activated MAP kinase [9]	cleavage of PARP (induction of apoptosis) [10]	Bcl-2 protein level [11]	Cyclin D1 protein level [13]	cellular proliferation, combination with temozolomide (TMZ) ([3]; dBT114 cells, C6 fixed 25 μM with increasing concentrations of TMZ (FIG. 7))	dose-dependent inhibition of tumor cell proliferation [14]	relative potency in causing cell death ([5]; all cell lines tested (BT114, DAOY, HCT))	dose-dependent inhibition of tumor cell proliferation [15]
	CC(=O)Nc1ccc(Cc2cc(-c3ccc(Br)cc3)n(-c3ccc(S(N)(=O)=O)cc3)n2)cc1 [C4, 3-(4-Acetamidebenzyl)-5-(4-bromophenyl)-1-(4-aminosulfonylphenyl)-1H-pyrazole]	cell death through apoptosis	cell death through apoptosis	dose-dependent inhibition	> 50000	cell death through apoptosis; also recorded: dose-dependent apoptosis	no clear pattern of increased or decreased metabolic activity													
	CNC(=O)COCC(=O)Nc1ccc(Cc2cc(-c3ccc(Br)cc3)n(-c3ccc(S(N)(=O)=O)cc3)n2)cc1 [C3, 3-[{2-[(Methylaminocarbonyl)-methoxy]-acetyl}-(4-aminobenzyl)]-5-(4-bromophenyl)-1-(4-aminosulfonylphenyl)-1H-pyrazole]			dose-dependent inhibition	670	dose-dependent apoptosis		potently inhibited; also recorded: blocked	profound effect	potently inhibited; also recorded: blocked	dose-dependent inhibition	no clear pattern of increased or decreased metabolic activity	no effect	cleavage of PARP; also recorded: increase	decreased Bcl-2 in a dose dependent fashion; also recorded: dose-dependent reduction					
strong uptake and fluorescence	CC(C)CCc1cc(-c2ccccc2)nn1-c1ccc(S(N)(=O)=O)cc1 [C9, 3-(Phenyl)-5-(isopentyl)-1-(4-aminosulfonylphenyl)-1H-pyrazole]																			
	NS(=O)(=O)c1ccc(-n2nc(Cc3ccc(NC(=O)COCC(=O)NCCCCCCCNC(=O)COCC(=O)Nc4ccc(Cc5cc(-c6ccc(Br)cc6)n(-c6ccc(S(N)(=O)=O)cc6)n5)cc4)cc3)cc2-c2ccc(Br)cc2)cc1 [C10, 3-[{2-[(7-{2-[((4-((5-(4-Bromophenyl)-1-(4-sulfamoylphenyl)-1H-pyrazol-3-yl)methyl)phenyl)aminocarbonyl)-methoxy]-acetylamino}-heptylaminocarbonyl)-methoxy]-acetyl}-(4-aminobenzyl)]-5-(4-bromophenyl)-1-(4-aminosulfonylphenyl)-1H-pyrazole]				207	dose-dependent apoptosis		potently inhibited; also recorded: blocked		potently inhibited; also recorded: blocked	dose-dependent inhibition	no clear pattern of increased or decreased metabolic activity	no effect	increase	dose-dependent reduction	decreased Cyclin D1 levels in a dose dependent fashion				
	CC(C)CCc1cc(-c2ccc(Br)cc2)n(-c2ccc(S(N)(=O)=O)cc2)n1 [C6, 5-(4-Bromophenyl)-3-(isopentyl)-1-(4-aminosulfonylphenyl)-1H-pyrazole]	cell death through apoptosis	cell death through apoptosis	dose-dependent inhibition; also recorded: dose dependent inhibition	13400	cell death through apoptosis; also recorded: dose-dependent apoptosis	no clear pattern of increased or decreased metabolic activity		profound effect								dose-dependent decrease	dose dependent inhibition	more potent than C4	dose dependent inhibition
